# Values joined by “and” are separate entries in the source; they are usually repeats but may differ in a detail not shown here. Identical values can stand only once. Like-named read-outs stand apart in the source and are kept apart here.
# What was measured:
# in vitro = conditions: monkey
# Experimental: The cells were incubated with test sample dilutions for 72 h and MTT was used as reagent for detection of cytotoxicity. Podophyllotoxin (SIGMA) was used as the standard reference drug.
# [1] = system: chloroquine resistant P. yoelii (N-67); assay: In vivo evaluation in P. yoelii (N-67) Swiss mice model; conditions: 100 mg/kg intraperitoneal, four doses day 0-3 once daily; one value per mouse
# Experimental: The molecules were tested at 100 mg/kg dose through intraperitoneal route. The mice received infective inoculum containing 1×10^5 parasites on day 0 and then received four doses of test compound on day 0-3 once daily. Five infected mice were used for each molecule and five infected mice were kept as untreated control. Arteether (5 mg/kg, ×4, intramuscular) was used as positive control. Thin blood smear from tail blood of each mouse was prepared on day 4. The blood smears were fixed in methanol, stained with Giemsa's stain and examined under the light microscope (100×oil immersion). At least 10-15 fields per smear were scanned to obtain percent parasitaemia in treated as well as untreated mice. If significant suppression in percent parasitaemia is observed on day 4, the monitoring continues up to day 28.
# [2] = system: Plasmodium falciparum D(6) clone; conditions: J Nat Prod. 2004, 67(1), 88-90; read-out: IC(50) against Plasmodium falciparum D(6) clone; cited from earlier work
# [3] = system: Chloroquine-sensitive (3D7) strain of P. falciparum; assay: Malaria SYBR Green I-based fluorescence (MSF) assay, 3D7 strain; assay type: cell-based; conditions: Plasmodium falciparum
# Experimental: (§1) The stock (5 mg/mL or 10 mM) solutions of extracts were prepared in DMSO and required dilutions were made in culture medium.
# (§2) Two-fold serial dilutions of test samples were made in 96 well plates and incubated with 1.0% parasitized cell suspension containing 0.8% parasitaemia (Asynchronous culture with more than 80% ring stages). The plates were incubated at 37° C. in CO2 incubator in an atmosphere of 5% CO2 and air mixture. 72 hours later 100 μL of lysis buffer containing 2× concentration of SYBR Green-I (Invitrogen) was added to each well and incubated for one hour at 37° C. The plates were examined at 485±20 nm of excitation and 530±20 nm of emission for relative fluorescence units (RFUs) per well using the fluorescence plate reader (FLX800, BIOTEK). IC50 values were obtained by Logit regression analysis of dose response curves (Singh et al. 2011).
# P. falciparum W(2) clone = conditions: J Nat Prod. 2004, 67(1), 88-90; read-out: IC(50) against P. falciparum W(2) clone; cited from earlier work
# [4] = system: Chloroquine-resistant (K1) strain of P. falciparum; assay: Malaria SYBR Green I-based fluorescence (MSF) assay, K1 strain; assay type: cell-based; conditions: Plasmodium falciparum
# Experimental: as §1, §2
# [5] = system: multidrug resistant human nasopharyngeal carcinoma (KB); conditions: when used with vincristine; Bioorg. Med. Chem. Lett. 2012, 22 (24), 7726-7729; cited from earlier work
# [6] = 3D7, range given for listed compounds, read-out: IC50 values against 3D7 culture
# [7] = P. falciparum 3D7, 72 hours incubation, read-out: IC50 against 3D7
# [8] = K1, range given for listed compounds, read-out: IC50 values against K1 culture
# [9] = P. falciparum K1, 72 hours incubation, read-out: IC50 against K1
Compound,melting point [°C],"IC50 [3, 6] [µM]","IC50 [3, 7] [µM]","IC50 [4, 8] [µM]","IC50 [4, 9] [µM]",CC50 at 72 h (in vitro) [µM],% parasitaemia on day 4 in 5 individual mice [1],IC50 [2] [µM],IC50 (P. falciparum W(2) clone) [µM],"chemoreversal activity, fold more active than verapamil [5] [fold]"
"COc1ccc([C@@H](CNC(=O)/C=C/c2ccccc2)OC(=O)/C=C/c2ccccc2)cc1OC [Compound 1, (S)-2-cinnamamido-1-(3,4-dimethoxyphenyl)ethyl cinnamate]",132 to 135,2 to 7,3.9,1.5 to 4,2.56,80.7,09.50% and 13.76% and 11.93% and 11.72% and 13.20%,2.04,3.06,–
"COc1cc(/C=C/C(=O)NC[C@@H](OC(=O)/C=C/c2cc(OC)c(OC)c(OC)c2)c2cc(OC)c(OC)c(OC)c2)cc(OC)c1OC [Compound 58, (S)-1-(3,4,5-trimethoxyphenyl)-2-((E)-3-(3,4,5-trimethoxyphenyl)acrylamido)ethyl (E)-3-(3,4,5-trimethoxyphenyl)acrylate]",67 to 69,2 to 7,1.89,1.5 to 4,1.93,42.7,10.10% and 10.16% and 13.50% and 07.50% and 11.92%,–,–,–
COc1cc(C(=O)OCC(OC(=O)c2cc(OC)c(OC)c(OC)c2)c2cc(OC)c(OC)c(OC)c2)cc(OC)c1OC (stereo not shown) [bis-trimethoxybenzoyl derivative],–,–,–,–,–,–,–,–,–,340

# More lines, main results first:
melting point [°C],"IC50 [3, 6] [µM]","IC50 [3, 7] [µM]","IC50 [4, 8] [µM]","IC50 [4, 9] [µM]",Compound,CC50 at 72 h (in vitro) [µM],% parasitaemia on day 4 in 5 individual mice [1],IC50 [2] [µM],IC50 (P. falciparum W(2) clone) [µM],"chemoreversal activity, fold more active than verapamil [5] [fold]"
138 to 140,2 to 7,3.16,1.5 to 4,1.78,"COc1ccc([C@@H](CNC(=O)/C=C/c2cc(OC)c(OC)c(OC)c2)OC(=O)/C=C/c2cc(OC)c(OC)c(OC)c2)cc1OC [Compound 41, (S)-1-(3,4-dimethoxyphenyl)-2-((E)-3-(3,4,5-trimethoxyphenyl)acrylamido)ethyl (E)-3-(3,4,5-trimethoxyphenyl)acrylate]",88,11.78% and 11.93% and 11.12% and 11.26% and 12.13%,–,–,–
138 to 140,2 to 7,2.28,1.5 to 4,2.07,"COc1ccc([C@H](CNC(=O)/C=C/c2cc(OC)c(OC)c(OC)c2)OC(=O)/C=C/c2cc(OC)c(OC)c(OC)c2)cc1OC [Compound 42, (R)-1-(3,4-dimethoxyphenyl)-2-((E)-3-(3,4,5-trimethoxyphenyl)acrylamido)ethyl (E)-3-(3,4,5-trimethoxyphenyl)acrylate]",88.9,14.07% and 12.50% and 15.10% and 12.16% and 11.46%,–,–,–
–,2 to 7,2.34,1.5 to 4,2.62,"COc1ccc([C@@H](COC(=O)/C=C/c2cc(OC)c(OC)c(OC)c2)OC(=O)/C=C/c2cc(OC)c(OC)c(OC)c2)cc1OC [Compound 56, (S)-1-(3,4-dimethoxyphenyl)ethane-1,2-diyl(2E,2′E)-bis(3-(3,4,5-trimethoxyphenyl)acrylate)]",55.7,06.06% and 08.31% and 16.23% and 13.92% and 11.13%,–,–,–
